According to patent US20130224223A1, “Compositions and Methods for Treating Neurological Disorders” (GEORGIA REGENTS UNIVERSITY, priority 2007, published 2013):

How the values were obtained:
cortical slices = experiment: [3H]GABA release from prefrontal cortical slices; type: cell-based, mice; conditions: 20 mM KCl
Experimental: FIG. 2A is a line graph of [^3H]GABA release fraction/total fraction versus time (mins). Cortical slices were preloaded with [^3H]GABA for 30 min in the presence of b-alanine (1 mM), an inhibitor of [^3H]GABA uptake by glial cells, aminooxyacetic acid (0.1 mM), an inhibitor of GABA degradation, and nipecotic acid (1 mM), an inhibitor of the GABA transporter in neurons. Basal and depolarization (20 mM KCl)-evoked release of [^3H]GABA were monitored sequentially. Controls (open circles) and NRG1 (closed circles). FIG. 2B is a line graph of percent [^3H]GABA release versus NRG1 concentration (nM). Basal (open circles) K+ evoked (closed circles). […] FIG. 2D is a line graph of cumulative counts versus mIPSC amplitude (pA). Controls (open circles) and NRG1 (closed circles). FIG. 2E is a line graph of cumulative counts versus mIPSC interevent interval (ms). Controls (open circles) and NRG1 (closed circles). FIG. 2F is a bar graph of mIPSC (percent) in control and NRG1 treated pyramidal neurons in prefrontal cortical slices (n=12). Amplitude (clear) and Frequencies (hatched). FIG. 2G is a bar graph of percent eIPSC amplitude in prefrontal cortical slices treated with NRG1 versus control or washout. n=12, *p<0.01. Representative eIPSCs of control, NRG1-treated, or NRG1-treated/washed slices are shown on top. FIG. 2H is a line graph of percent eIPSC amplitude versus NRG1 (nM). n=6, *p<0.05, **p<0.01. FIG. 2I is a bar graph of K^+ evoked [^3H]GABA release (percent) (left axis, clear rectangles) and eIPSC amplitude (percent) (right axis, hatched rectangles) in prefrontal cortical slices treated with NRG1, denature NRG1, or BDNF. n=8 for [^3H]GABA release; for eIPSCs, n=6 for control, NRG1, and denatured NRG1, and n=4 for BDNF. *p<0.05, #p<0.05; **p<0.05, ##<0.01.
NRG1 may regulate GABAergic neurotransmission. To test this hypothesis, the effects of NRG1 on GABA release in cortical slices were determined by both biochemical and electrophysiological approaches. Basal [^3H]GABA release was low, at a rate of 3.75±0.35% (n=8) of total radioactivity per 10 min (FIG. 2A). Treatment of slices with 20 mM KCl, a condition known to depolarize neurons, increased [^3H]GABA release by 2.5-3.5 folds within 10 min (FIG. 2A). NRG1 had no effect on basal [^3H]GABA release; by contrast, it increased depolarization-evoked GABA release in a dose-dependent manner (FIG. 2B). […] Furthermore, the NRG regulation remained unchanged in the presence of antagonists of metabotropic glutamate receptors, cholinergic receptors, serotonin receptors, adrenergic receptors and/or dopamine receptors. As a control, BDNF decreased depolarization-evoked GABA release and eIPSCs in cortical slices, in agreement with earlier studies (Canas, et al., Brain Res, 1016:72-78 (2004); Frerking, et al., J Neurophysiol, 80:3383-3386 (1998)).

[1] = test system: prefrontal cortical slices; experiment: eIPSC recording in prefrontal cortical slices; type: cell-based, mice
Experimental: Transverse prefrontal cortical slices (0.3 mm) were prepared from P28-P36 mice using a Vibroslice (Leica VT 10005) in the ice-cold solution, which contained 2.5 mM KCl, 1.25 mM NaH2PO4, 10 mM MgSO4, 0.5 mMCaCl2, 26 mM NaHCO3, 10 mM glucose, and 230 mM sucrose. Slices were allowed to recover for at least 2 hr in ACSF (1 hr at 34° C. followed by 1 hr at 22° C.) in a solution containing 126 mM NaCl, 2.5 mM KCl, 1.25 mM NaH2PO4, 2 mM MgSO4, 2 mM CaCl2, 26 mM NaHCO3, and 10 mM glucose. Slices were placed in the recording chamber and superfused (1.5 ml/min) with ACSF at 34° C. All solutions were saturated with 95% O2/5% CO2. Neurons were visualized with an IR-sensitive CCD camera with a 403 water-immersion lens (Zeiss, Axioskop2 Fsplus) and recorded using whole-cell voltage-clamp techniques (MultiClamp 7008 Amplifier, Digidata 1320A analog-to-digital converter) and pClamp 9.2 software (Axon Instruments). Glass pipettes were filled with the solution containing 125 mM Cs-gluconate, 10 mM CsCl, 1 mM MgCl2, 10 mM HEPES, 1 mM EGTA, 0.1 mM CaCl2, 10 mM sodium phosphocreatine, 4 mM Mg-ATP, 0.3 mM GTP, 0.2 mM leupeptin, and 5 mM lidocaine N-ethylchloride (QX314) (pH 7.2, with the osmolarity adjusted to 280 mOsm with sucrose). The resistance of pipettes was 2-3 MΩ For mIPSC recording, QX314 was omitted in the pipette filling solution, whereas […] was included in the superfusing solution. eIPSCs were generated with a two-concentric bipolar stimulating electrode ([…] pole separation; FHC, ME) positioned about […] from the neuron under recording. Single or paired pulses of 0.2 ms were delivered at 0.1 Hz and synchronized using a Mater-8 stimulator (A.M.P.I). The holding potential for both mIPSCs and eIPSCs was −65 mV. All experiments were done at 34° C. in the presence of 6-cyano-7-nitroquinoxaline-2,3-dione (CNQX, […]) and AP-5 ([…]) to block AMPA/NMDA receptors. Data were collected when series resistance fluctuated within 15% of initial values (8-15 MU), they were filtered at 2 kHz, and they were sampled at 10 kHz.

[2] = substance alone, no other exogenous agent, AG1478/AG879 5 mM [sic]

Q: What does the source list for `COc1cc2ncnc(Nc3cccc(Cl)c3)c2cc1OC` [AG1478]?
A: depolarization-evoked [3H]GABA release (cortical slices; [2]): decreased; NRG1-enhanced evoked GABA release (cortical slices; substance given with exogenous NRG1): prevented; evoked IPSCs (eIPSCs) [1, 2]: decreased; NRG1 potentiation of eIPSCs ([1]; substance given with exogenous NRG1 (5 nM)): prevented
